Measurements reported in patent US20240139211A1, “METHODS AND COMPOSITIONS FOR TREATING AMYOTROPHIC LATERAL SCLEROSIS” (Amylyx Pharmaceuticals, Inc., priority 2022, published 2024).
Values joined by “and” are separate entries in the source; they are usually repeats but may differ in a detail not shown here. Equal values may be shown once. Where a name gives a salt, the structure may show the parent alone. Read-outs that look alike come from different tables or passages of the source.

Columns and labels:
[1] = Rat drug-drug interaction study TDF + AMX0035: urine recovery; assay type: in vivo; conditions: for Amount Recovered: male Sprague Dawley rats, oral, total urine, 24 hour collection
Procedure: Total urine recovery data for Tenofovir, TDF, and PB was calculated for the 24 hour collection period on Days 1 and 5. […] The reported urine recovery data included amount recovered (ng) and percent recovered (%) for […]. Individual and mean Tenofovir, TDF, and PB urine recovery data were presented with SD, reported to three significant figures, and CV %, reported to one decimal place.

[2] = rat, in vivo
Procedure: This study was comprised of one group of three male CD® (Sprague-Dawley) IGS rats.
Clinical observations were recorded approximately 1 hour post-dose on Days 1-4 and twice on Day 5, once post-AMX0035 administration and once post-TDF administration. Body weight measurements were recorded prior to randomization and then daily through the end of the study.
Nominal dose values and nominal sampling times were used for calculations. […] Pharmacokinetic analysis included the determination of Cmax, Tmax, AUClast, Tlast, and AUC0-24.

human hepatocytes = conditions: 72 h, 100 μM
Procedure: Plateable and inducible cryopreserved human hepatocytes were thawed and isolated in human hepatocyte thawing medium. […] After attachment (4 hours), the medium was changed to fresh hepatocyte culture medium for overnight cell recovery. […] A positive control (100 μM chlorpromazine) was treated in parallel.

hrCYP2C9 = hrCYP2C9 (Homo sapiens, UniProt P11712); conditions: 20 min, 6 μM, pH 7.4
CYP2C9 [3] = target: T1, CYP2C9 (Homo sapiens, UniProt P11712); conditions: 4 μM, pH 7.4
CYP2B6 = target: T2, CYP2B6 (Homo sapiens, UniProt P20813); assay: in vitro; conditions: microsomes, pH 7.4
T2 sequence (P20813 1-491): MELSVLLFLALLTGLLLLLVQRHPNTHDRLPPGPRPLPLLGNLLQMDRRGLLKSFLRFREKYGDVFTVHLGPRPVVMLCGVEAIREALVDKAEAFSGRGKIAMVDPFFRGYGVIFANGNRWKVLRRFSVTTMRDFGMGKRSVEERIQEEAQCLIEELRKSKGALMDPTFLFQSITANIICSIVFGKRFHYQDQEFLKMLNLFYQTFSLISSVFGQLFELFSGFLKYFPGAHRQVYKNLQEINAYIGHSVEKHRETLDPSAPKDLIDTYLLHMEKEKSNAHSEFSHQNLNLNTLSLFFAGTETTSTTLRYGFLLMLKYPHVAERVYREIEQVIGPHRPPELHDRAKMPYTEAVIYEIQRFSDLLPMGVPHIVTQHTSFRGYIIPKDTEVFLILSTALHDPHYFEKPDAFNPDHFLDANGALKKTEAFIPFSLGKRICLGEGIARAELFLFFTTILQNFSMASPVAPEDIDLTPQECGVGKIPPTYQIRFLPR

hrCYP3A4 = hrCYP3A4 (Homo sapiens, UniProt P08684); assay: Formation of CYP probe metabolite by hrCYP3A4; assay type: in vitro ADME; conditions: hrCYP3A4 vs Negative Control, QC criterion ≥2
CYP2C9 [4] = target: T1, CYP2C9; assay: Inhibition of CYP2C9 in human liver microsomes; conditions: pH 7.4

T1 sequence (P11712 whole entry): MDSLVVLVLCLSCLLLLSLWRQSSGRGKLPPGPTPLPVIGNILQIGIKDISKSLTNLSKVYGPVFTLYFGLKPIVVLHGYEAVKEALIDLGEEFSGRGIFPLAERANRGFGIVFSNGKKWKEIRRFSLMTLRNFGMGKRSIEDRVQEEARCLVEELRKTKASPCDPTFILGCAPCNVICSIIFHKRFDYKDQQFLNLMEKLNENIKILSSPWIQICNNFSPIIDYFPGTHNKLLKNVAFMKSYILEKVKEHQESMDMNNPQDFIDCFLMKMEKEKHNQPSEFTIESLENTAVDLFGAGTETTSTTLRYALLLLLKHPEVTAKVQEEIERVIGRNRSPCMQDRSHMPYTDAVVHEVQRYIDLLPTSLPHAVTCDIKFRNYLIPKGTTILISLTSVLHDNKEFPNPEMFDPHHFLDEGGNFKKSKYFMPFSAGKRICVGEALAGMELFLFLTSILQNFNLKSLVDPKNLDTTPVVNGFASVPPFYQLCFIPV
Chain of hrCYP2C9 (P11712 whole entry): as above
Chain of hrCYP3A4 (P08684 whole entry): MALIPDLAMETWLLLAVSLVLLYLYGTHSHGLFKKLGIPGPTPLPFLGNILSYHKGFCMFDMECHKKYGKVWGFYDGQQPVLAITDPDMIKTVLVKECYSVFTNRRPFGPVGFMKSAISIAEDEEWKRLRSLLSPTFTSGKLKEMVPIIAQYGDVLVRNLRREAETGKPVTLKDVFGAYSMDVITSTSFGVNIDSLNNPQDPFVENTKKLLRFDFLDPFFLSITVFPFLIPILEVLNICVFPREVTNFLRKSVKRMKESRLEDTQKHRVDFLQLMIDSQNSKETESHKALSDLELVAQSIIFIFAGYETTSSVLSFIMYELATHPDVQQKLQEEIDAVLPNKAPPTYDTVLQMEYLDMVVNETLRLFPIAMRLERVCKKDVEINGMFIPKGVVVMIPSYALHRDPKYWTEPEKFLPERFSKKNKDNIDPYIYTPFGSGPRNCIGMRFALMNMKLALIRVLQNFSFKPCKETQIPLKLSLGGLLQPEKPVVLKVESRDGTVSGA

SMILES: C[C@H](Cn1cnc2c(N)ncnc21)OCP(=O)(O)O [Tenofovir]
- Amount Recovered ([1]; Day 1, TDF only 25 mg/kg, individual animals): 77300 ng and 63200 ng and 234000 ng
- Amount Recovered ([1]; Day 1, TDF only 25 mg/kg, mean): 125000 ng
- Amount Recovered ([1]; Day 5, AMX0035 + TDF 840/25 mg/kg, individual animals): 764000 ng and 296000 ng and 99500 ng
- Amount Recovered ([1]; Day 5, AMX0035 + TDF 840/25 mg/kg, mean): 386000 ng
- Fold increase of mean AUClast in the presence of AMX0035 [2]: 2.17 fold
- Fold increase of mean Cmax in the presence of AMX0035 [2]: 1.24 fold
- Individual Tmax [2]: 15 min

SMILES: CN(C)CCCN1c2ccccc2Sc2ccc(Cl)cc21 [Chlorpromazine, chlorpromazine]
- % MTS absorbance relative to vehicle control (human hepatocytes): 24.3%
- Formazan absorbance, mean (human hepatocytes): 0.160

SMILES: O=C(O)Cc1ccccc1Nc1c(Cl)cccc1Cl [Diclofenac]
- Formation Rate (hrCYP2C9): 0 pmol metabolite/min/mg Supersome protein
- Measured Metabolite (hrCYP2C9): 0 µM
- Formation Rate (hrCYP2C9; human): 845 pmol metabolite/min/mg Supersome protein
- Measured Metabolite (hrCYP2C9; human): 1.56 µM
- Formation Rate Ratio (CYP2C9 [3]): 7.7

SMILES: S=P(N1CC1)(N1CC1)N1CC1 [Thio-TEPA]
- activity at 3.33 µM (CYP2B6): 66.9%
- activity at 10 µM (CYP2B6): 44.1%
- activity at 30 µM (CYP2B6): 26.7%

SMILES: CC(C)OC(=O)OCOP(=O)(CO[C@H](C)Cn1cnc2c(N)ncnc21)OCOC(=O)OC(C)C [TDF, Tenofovir Disoproxil Fumarate]
- Urine concentrations ([1]; male, Sprague-Dawley, rat, in vivo): Urine concentrations for PB analysis in all animals on Day 1, for TUDCA analysis in all animals on Days 1 and 5, and for TDF analysis in two animals on Day 1 and one animal on Day 5 were BLQ (<20 mg/mL) so no recovery data was calculated.
- Prodrug in plasma [2]: No prodrug (TDF) was detected in plasma

SMILES: C[C@]12CC[C@H]3[C@@H](CCC4=CC(=O)CC[C@@]43C)[C@@H]1CC[C@@H]2O [Testosterone]
- Formation Rate Ratio (hrCYP3A4; Testosterone (50 μM)): >>2

SMILES: Nc1ccc(S(=O)(=O)Nc2ccnn2-c2ccccc2)cc1 [Sulfaphenazole]
- activity at 3.33 µM (CYP2C9 [4]): 23.8%
- activity at 10 µM (CYP2C9 [4]): 14.9%

SMILES: Cc1ncc2n1-c1ccc(Cl)cc1C(c1ccccc1F)=NC2 [Midazolam]
- Formation Rate Ratio (hrCYP3A4; Midazolam (2 μM)): >>2
